Test results published in patent US12440484B2, “1,3,4-oxadiazole homophthalimide derivative compounds as histone deacetylase 6 inhibitor, and the pharmaceutical composition comprising the same” (Chong Kun Dang Pharmaceutical Corp., priority 2019, dated 2025).

Columns and labels:
HDAC6 human recombinant = HDAC6 human recombinant (Homo sapiens (Human), UniProt Q9UBN7); experiment: HDAC enzyme activity inhibition (in vitro), HDAC6 assay; assay type: biochemical; conditions: samples at 0.1, 1, 10, 100 and 1000 nM; 37° C. 60 minutes; fluorescence Ex 390, Em 460
HDAC1 = HDAC1 (Homo sapiens (Human), UniProt Q13547); experiment: HDAC enzyme activity inhibition (in vitro), HDAC1 Fluorimetric Drug Discovery Assay Kit; assay type: biochemical; conditions: samples at 100, 1000 and 10000 nM; 37° C. 60 minutes; fluorescence Ex 390, Em 460
HDAC1, sequence (Q13547 whole entry): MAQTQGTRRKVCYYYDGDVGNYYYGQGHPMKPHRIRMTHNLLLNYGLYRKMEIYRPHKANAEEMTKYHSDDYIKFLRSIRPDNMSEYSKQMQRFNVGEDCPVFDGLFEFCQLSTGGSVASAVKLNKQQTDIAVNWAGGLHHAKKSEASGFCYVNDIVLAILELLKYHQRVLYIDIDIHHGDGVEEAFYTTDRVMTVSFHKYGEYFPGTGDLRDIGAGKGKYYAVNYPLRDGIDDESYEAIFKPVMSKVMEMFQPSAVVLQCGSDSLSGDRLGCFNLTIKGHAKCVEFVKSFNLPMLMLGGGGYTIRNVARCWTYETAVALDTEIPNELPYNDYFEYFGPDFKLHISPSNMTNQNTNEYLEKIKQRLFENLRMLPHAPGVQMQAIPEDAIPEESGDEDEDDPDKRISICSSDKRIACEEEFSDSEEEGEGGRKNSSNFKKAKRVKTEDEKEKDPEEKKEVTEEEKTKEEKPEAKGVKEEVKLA

HDAC6 human recombinant, sequence (Q9UBN7 whole entry): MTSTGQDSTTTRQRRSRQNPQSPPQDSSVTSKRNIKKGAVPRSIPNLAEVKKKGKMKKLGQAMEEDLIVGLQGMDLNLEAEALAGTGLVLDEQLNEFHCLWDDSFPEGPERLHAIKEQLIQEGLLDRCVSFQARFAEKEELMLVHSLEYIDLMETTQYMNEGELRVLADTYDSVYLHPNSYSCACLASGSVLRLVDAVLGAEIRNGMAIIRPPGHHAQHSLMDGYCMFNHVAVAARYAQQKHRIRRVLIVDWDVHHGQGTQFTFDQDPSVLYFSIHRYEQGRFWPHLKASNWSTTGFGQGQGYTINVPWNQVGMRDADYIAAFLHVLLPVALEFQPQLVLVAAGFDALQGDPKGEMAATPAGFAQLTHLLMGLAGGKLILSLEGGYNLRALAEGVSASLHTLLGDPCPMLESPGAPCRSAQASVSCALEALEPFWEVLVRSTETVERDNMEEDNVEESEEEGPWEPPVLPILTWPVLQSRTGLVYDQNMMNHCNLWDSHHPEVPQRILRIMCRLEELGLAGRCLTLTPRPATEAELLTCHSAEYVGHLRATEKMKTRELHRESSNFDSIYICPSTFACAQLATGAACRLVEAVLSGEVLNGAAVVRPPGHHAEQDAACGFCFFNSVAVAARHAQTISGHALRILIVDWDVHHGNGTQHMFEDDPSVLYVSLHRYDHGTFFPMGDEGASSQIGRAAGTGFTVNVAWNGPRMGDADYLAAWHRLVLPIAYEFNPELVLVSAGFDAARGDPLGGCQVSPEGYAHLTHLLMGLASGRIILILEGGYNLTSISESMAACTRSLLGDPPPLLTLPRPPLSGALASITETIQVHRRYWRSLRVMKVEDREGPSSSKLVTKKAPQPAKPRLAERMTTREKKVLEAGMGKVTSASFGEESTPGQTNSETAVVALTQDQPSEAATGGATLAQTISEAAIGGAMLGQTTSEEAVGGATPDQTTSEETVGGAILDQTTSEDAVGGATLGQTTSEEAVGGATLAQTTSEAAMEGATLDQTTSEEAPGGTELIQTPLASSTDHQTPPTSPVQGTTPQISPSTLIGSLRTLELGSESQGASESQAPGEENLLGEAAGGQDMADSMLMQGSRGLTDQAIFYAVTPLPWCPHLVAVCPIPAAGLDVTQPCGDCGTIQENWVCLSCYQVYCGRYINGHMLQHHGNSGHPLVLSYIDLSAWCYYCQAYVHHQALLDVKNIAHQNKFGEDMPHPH

Row | SMILES | IC50 (HDAC6 human recombinant) [nM] | IC50 (HDAC1) [nM]
1 | Cn1c(=O)n(Cc2ccc(-c3nnc(C(F)F)o3)cn2)c(=O)c2ccc(C3=CCNCC3)cc21 [Compound 122, 3-((5-(5-(difluoromethyl)-1,3,4-oxadiazole-2-yl)pyridine-2-yl)methyl)-1-methyl-7-(1,2,3,6-tetrahydropyridine-4-yl)quinazoline-2,4(1H,3H)-dione] | 23 | > 10000
2 | CC(C)CCN1CCN(c2ccc3c(c2)C(=O)N(Cc2ccc(-c4nnc(C(F)F)o4)cn2)C(=O)C3(C)C)CC1 [Compound 132, 2-((5-(5-(difluoromethyl)-1,3,4-oxadiazole-2-yl)pyridine-2-yl)methyl)-7-(4-isopentylpiperazine-1-yl)-4,4-dimethylisoquinoline-1,3(2H,4H)-dione] | 69 | > 10000
3 | CN(C)CCCn1c(=O)n(Cc2ccc(-c3nnc(C(F)F)o3)cn2)c(=O)c2ccccc21 [Compound 19, 3-((5-(5-(difluoromethyl)-1,3,4-oxadiazole-2-yl)pyridine-2-yl)methyl)-1-(3-(dimethylamino)propyl)quinazoline-2,4(1H,3H)-dione] | 249 | > 10000
4 | Cc1ccc(-c2cccc3c2C(=O)N(Cc2ccc(-c4nnc(C(F)F)o4)cn2)C(=O)C3(C)C)o1 [Compound 93, 2-((5-(5-(difluoromethyl)-1,3,4-oxadiazole-2-yl)pyridine-2-yl)methyl)-4,4-dimethyl-8-(5-methylfuran-2-yl)isoquinoline-1,3(2H,4H)-dione] | 143 | > 10000
5 | CC1(C)C(=O)N(Cc2ccc(-c3nnc(C(F)F)o3)cn2)C(=O)c2ccc(Br)cc21 [Compound 23, 6-bromo-2-((5-(5-(difluoromethyl)-1,3,4-oxadiazole-2-yl)pyridine-2-yl)methyl)-4,4-dimethylisoquinoline-1,3(2H,4H)-dione] | 65 | > 10000
6 | Cn1c(=O)n(Cc2ccc(-c3nnc(C(F)F)o3)cn2)c(=O)c2ccc(-c3ccco3)cc21 [Compound 98, 3-((5-(5-(difluoromethyl)-1,3,4-oxadiazole-2-yl)pyridine-2-yl)methyl)-7-(furan-2-yl)-1-methylquinazoline-2,4(1H,3H)-dione] | 47 | > 10000
7 | CC(C)N1CCC(c2ccc3c(c2)C(C)(C)C(=O)N(Cc2ccc(-c4nnc(C(F)F)o4)cn2)C3=O)CC1 [Compound 60, 2-((5-(5-(difluoromethyl)-1,3,4-oxadiazole-2-yl)pyridine-2-yl)methyl)-6-(1-isopropylpiperidine-4-yl)-4,4-dimethylisoquinoline-1,3(2H,4H)-dione] | 22 | > 10000
8 | CC(C)(C)OC(=O)N1CCN(c2ccc3c(c2)C(C)(C)C(=O)N(Cc2ccc(-c4nnc(C(F)F)o4)cn2)C3=O)CC12CC2 [Compound 79, tert-butyl 7-(2-((5-(5-(difluoromethyl)-1,3,4-oxadiazole-2-yl)pyridine-2-yl)methyl)-4,4-dimethyl-1,3-dioxo-1,2,3,4-tetrahydroisoquinoline-6-yl)-4,7-diazaspiro[2.5]octane-4-carboxylate] | 113 | > 10000
9 | Cc1ccc(-c2ccc3c(c2)C(=O)N(Cc2ccc(-c4nnc(C(F)F)o4)cn2)C(=O)C3(C)C)o1 [Compound 114, 2-((5-(5-(difluoromethyl)-1,3,4-oxadiazole-2-yl)pyridine-2-yl)methyl)-4,4-dimethyl-7-(5-methylfuran-2-yl)isoquinoline-1,3(2H,4H)-dione] | 77 | > 10000
10 | CC1(C)C(=O)N(Cc2ccc(-c3nnc(C(F)F)o3)cn2)C(=O)c2ccc(N3CCN(C4COC4)CC3)cc21 [Compound 30, 2-((5-(5-(difluoromethyl)-1,3,4-oxadiazole-2-yl)pyridine-2-yl)methyl)-4,4-dimethyl-6-(4-(oxetan-3-yl)piperazine-1-yl)isoquinoline-1,3(2H,4H)-dione] | 46 | > 10000
11 | CC1(C)C(=O)N(Cc2ncc(-c3nnc(C(F)F)o3)cn2)C(=O)c2ccccc21 [Compound 12, 2-((5-(5-(difluoromethyl)-1,3,4-oxadiazole-2-yl)pyrimidine-2-yl)methyl)-4,4-dimethylisoquinoline-1,3(2H,4H)-dione] | 83 | > 10000
12 | O=C1c2ccc(Br)cc2C2(CCC2)C(=O)N1Cc1ccc(-c2nnc(C(F)F)o2)cn1 [Compound 106, 6′-bromo-2′-((5-(5-(difluoromethyl)-1,3,4-oxadiazole-2-yl)pyridine-2-yl)methyl)-1′H-spiro[cyclobutane-1,4′-isoquinoline]-1′,3′(2′H)-dione] | 48 | > 10000
13 | O=c1c2ccccc2n(CC2CCN(C3COC3)CC2)c(=O)n1Cc1ccc(-c2nnc(C(F)F)o2)cn1 [Compound 16, 3-((5-(5-(difluoromethyl)-1,3,4-oxadiazole-2-yl)pyridine-2-yl)methyl)-1-((1-(oxetan-3-yl)piperidine-4-yl)methyl)quinazoline-2,4(1H,3H)-dione] | 257 | > 10000
14 | CC1(C)C(=O)N(Cc2ccc(-c3nnc(C(F)F)o3)cn2)C(=O)c2cc(-c3cccc(F)c3)ccc21 [Compound 108, 2-((5-(5-(difluoromethyl)-1,3,4-oxadiazole-2-yl)pyridine-2-yl)methyl)-7-(3-fluorophenyl)-4,4-dimethylisoquinoline-1,3(2H,4H)-dione] | 211 | > 10000

The remaining molecules from weak to strong by IC50 (HDAC6 human recombinant), led by results:

Row | IC50 (HDAC6 human recombinant) [nM] | IC50 (HDAC1) [nM] | SMILES
15 | 43 | > 10000 | CC1(C)C(=O)N(Cc2ccc(-c3nnc(C(F)F)o3)cn2)C(=O)c2cc(-c3ccco3)ccc21 [Compound 113, 2-((5-(5-(difluoromethyl)-1,3,4-oxadiazole-2-yl)pyridine-2-yl)methyl)-7-(furan-2-yl)-4,4-dimethylisoquinoline-1,3(2H,4H)-dione]
16 | 42 | > 10000 | CN1CCC(c2ccc3c(c2)C(=O)N(Cc2ccc(-c4nnc(C(F)F)o4)cn2)C(=O)C3(C)C)CC1 [Compound 54, 2-((5-(5-(difluoromethyl)-1,3,4-oxadiazole-2-yl)pyridine-2-yl)methyl)-4,4-dimethyl-7-(1-methylpiperidine-4-yl)isoquinoline-1,3(2H,4H)-dione]
17 | 40 | > 10000 | O=c1c2ccccc2n(Cc2ccc(-c3nnc(C(F)F)o3)cn2)c(=O)n1Cc1ccc(-c2nnc(C(F)F)o2)cn1 [Compound 78, 1,3-bis((5-(5-(difluoromethyl)-1,3,4-oxadiazole-2-yl)pyridine-2-yl)methyl)quinazoline-2,4(1H,3H)-dione]
18 | 37 | > 10000 | CC1(C)C(=O)N(Cc2ccc(-c3nnc(C(F)F)o3)cn2)C(=O)c2cc(C3CCN(C4CCC4)CC3)ccc21 [Compound 145, 7-(1-cyclobutylpiperidine-4-yl)-2-((5-(5-(difluoromethyl)-1,3,4-oxadiazole-2-yl)pyridine-2-yl)methyl)-4,4-dimethylisoquinoline-1,3(2H,4H)-dione]
19 | 36 | > 10000 | CC1(C)C(=O)N(Cc2ccc(-c3nnc(C(F)F)o3)cn2)C(=O)c2cc(C3=CCSCC3)ccc21 [Compound 121, 2-((5-(5-(difluoromethyl)-1,3,4-oxadiazole-2-yl)pyridine-2-yl)methyl)-7-(3,6-dihydro-2H-thiopyran-4-yl)-4,4-dimethylisoquinoline-1,3(2H,4H)-dione]
20 | 34 | > 10000 | CC1(C)C(=O)N(Cc2ccc(-c3nnc(C(F)F)o3)cn2)C(=O)c2ccc(N3CCN(CC(=O)N4CCCC4)CC3)cc21 [Compound 33, 2-((5-(5-(difluoromethyl)-1,3,4-oxadiazole-2-yl)pyridine-2-yl)methyl)-4,4-dimethyl-6-(4-(2-oxo-2-(pyrrolidine-1-yl)ethyl)piperazine-1-yl)isoquinoline-1,3(2H,4H)-dione]
21 | 32 | > 10000 | CCCN1CCN(c2ccc3c(c2)C(C)(C)C(=O)N(Cc2ccc(-c4nnc(C(F)F)o4)cn2)C3=O)CC1 [Compound 148]
22 | 30 | > 10000 | CC1(C)C(=O)N(Cc2ccc(-c3nnc(C(F)F)o3)cn2)C(=O)c2ccccc21 [Compound 8, 2-((5-(5-(difluoromethyl)-1,3,4-oxadiazole-2-yl)pyridine-2-yl)methyl)-4,4-dimethylisoquinoline-1,3(2H,4H)-dione]
23 | 29 | > 10000 | CN(C)[C@H]1CCN(c2ccc3c(c2)C(C)(C)C(=O)N(Cc2ccc(-c4nnc(C(F)F)o4)cn2)C3=O)C1 [Compound 31, (S)-2-((5-(5-(difluoromethyl)-1,3,4-oxadiazole-2-yl)pyridine-2-yl)methyl)-6-(3-(dimethylamino)pyrrolidine-1-yl)-4,4-dimethylisoquinoline-1,3(2H,4H)-dione]
24 | 20 | > 10000 | CC1(C)C(=O)N(Cc2ccc(-c3nnc(C(F)F)o3)cn2)C(=O)c2ccc(-c3cccnc3)cc21 [Compound 104, 2-((5-(5-(difluoromethyl)-1,3,4-oxadiazole-2-yl)pyridine-2-yl)methyl)-4,4-dimethyl-6-(pyridine-3-yl)isoquinoline-1,3(2H,4H)-dione]
25 | 20 | > 10000 | CCN1CCC(c2ccc3c(c2)C(=O)N(Cc2ccc(-c4nnc(C(F)F)o4)cn2)C(=O)C3(C)C)CC1 [Compound 68, 2-((5-(5-(difluoromethyl)-1,3,4-oxadiazole-2-yl)pyridine-2-yl)methyl)-7-(1-ethylpiperidine-4-yl)-4,4-dimethylisoquinoline-1,3(2H,4H)-dione]
26 | 12 | > 10000 | CC1(C)C(=O)N(Cc2ccc(-c3nnc(C(F)F)o3)cn2)C(=O)c2cc(C3CCN(C(=O)CO)CC3)ccc21 [Compound 134, 2-((5-(5-(difluoromethyl)-1,3,4-oxadiazole-2-yl)pyridine-2-yl)methyl)-7-(1-(2-hydroxyacetyl)piperidine-4-yl)-4,4-dimethylisoquinoline-1,3(2H,4H)-dione]
